For eight molecules, Kd results are on record in patent US20260374773A1, “MULTI-CYCLIC IRAK AND FLT3 INHIBITING COMPOUNDS AND USES THEREOF” (CHILDREN'S HOSPITAL MEDICAL CENTER, priority 2022, published 2026).

One may read the Kd as the constant that tells how readily two partners part at equilibrium.

A value given as a limit tells only on which side of the number the result lay.

The target of the first test is T1, FLT3 (Homo sapiens, UniProt P36888).
T1 sequence (P36888 27-993): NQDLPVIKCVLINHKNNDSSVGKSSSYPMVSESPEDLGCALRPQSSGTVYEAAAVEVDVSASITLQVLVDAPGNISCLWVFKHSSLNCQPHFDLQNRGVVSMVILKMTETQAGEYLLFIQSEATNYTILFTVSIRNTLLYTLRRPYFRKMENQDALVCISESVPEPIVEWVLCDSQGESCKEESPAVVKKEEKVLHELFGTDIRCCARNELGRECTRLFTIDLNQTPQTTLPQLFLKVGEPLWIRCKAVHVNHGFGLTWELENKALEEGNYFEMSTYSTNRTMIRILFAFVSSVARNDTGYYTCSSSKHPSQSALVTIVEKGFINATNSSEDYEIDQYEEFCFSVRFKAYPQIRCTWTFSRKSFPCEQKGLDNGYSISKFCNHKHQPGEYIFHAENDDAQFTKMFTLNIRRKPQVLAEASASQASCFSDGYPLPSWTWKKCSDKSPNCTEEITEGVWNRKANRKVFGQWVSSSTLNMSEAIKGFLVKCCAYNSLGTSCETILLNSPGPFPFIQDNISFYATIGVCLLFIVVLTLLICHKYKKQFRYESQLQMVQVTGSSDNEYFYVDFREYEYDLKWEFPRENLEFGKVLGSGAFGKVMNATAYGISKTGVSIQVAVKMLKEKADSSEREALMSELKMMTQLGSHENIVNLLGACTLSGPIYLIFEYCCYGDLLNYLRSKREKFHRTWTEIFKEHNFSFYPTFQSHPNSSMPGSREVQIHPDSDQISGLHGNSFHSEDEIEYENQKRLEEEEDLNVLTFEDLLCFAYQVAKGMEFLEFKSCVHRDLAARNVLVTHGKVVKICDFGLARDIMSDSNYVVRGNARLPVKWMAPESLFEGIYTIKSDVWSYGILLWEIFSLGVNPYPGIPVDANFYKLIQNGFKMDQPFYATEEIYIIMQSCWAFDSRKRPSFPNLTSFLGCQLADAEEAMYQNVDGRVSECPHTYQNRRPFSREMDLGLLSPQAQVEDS
Briefly: DiscoverX KINOMEscan active site-directed competition binding, FLT3. Particulars: Table 12; no ATP.
Description: (§1) Kinase binding data were obtained for various exemplary compounds prepared according to Examples 1-8 using the DiscoverX KINOMEscan® active site-directed competition binding site-directed assay protocol described below. […] As a result, the data report thermodynamic interaction affinities (Kd values), rather than IC50 values that are dependent on ATP concentrations. The assay uses a DNA-tagged version of the protein kinase, and an immobilized ligand bound to a solid support. Compounds that directly or indirectly prevent kinase binding to the immobilized ligand reduce the amount of kinase captured on the solid support, which is detected using an ultra-sensitive qPCR method. Affinity constants reported from the assay have been reported to be independent of the immobilized ligand used that is coupled to the solid support (See supplemental information in Fabian, M. A. et. al., (2005) Nat. Biotechnol. 23, 329-336; Wodicka, L. M. et. al., (2010) Chem. Biol. 17, 1241-1249.)
Kinase-tagged T7 phage strains were prepared in an E. coli host derived from the BL21 strain. E. coli were grown to log-phase and infected with T7 phage and incubated with shaking at 32 °C until lysis. The lysates were centrifuged and filtered to remove cell debris. The remaining kinases were produced in HEK-293 cells and subsequently tagged with DNA for qPCR detection. Streptavidin-coated magnetic beads were treated with biotinylated small molecule ligands for 30 minutes at room temperature to generate affinity resins for kinase assays. The liganded beads were blocked with excess biotin and washed with blocking buffer (SeaBlock (Pierce), 1% BSA, 0.05% Tween 20, 1 mM DTT) to remove unbound ligand and to reduce non-specific binding. […] Test compounds were prepared as 111x stocks in 100% DMSO. Kds were determined using an 11-point 3-fold compound dilution series with three DMSO control points. All compounds for Kd measurements are distributed by acoustic transfer (non-contact dispensing) in 100% DMSO. The compounds were then diluted directly into the assays such that the final concentration of DMSO was 0.9%. All reactions were performed in polypropylene 384-well plates. Each was a final volume of 0.02 mL. The assay plates were incubated at room temperature with shaking for 1 hour and the affinity beads were washed with wash buffer (1×PBS, 0.05% Tween 20). The beads were then re-suspended in elution buffer (1×PBS, 0.05% Tween 20, 0.5 μM nonbiotinylated affinity ligand) and incubated at room temperature with shaking for 30 minutes. The kinase concentration in the eluates was measured by qPCR. Binding constants (Kds) were calculated with a standard dose-response curve using the Hill equation. The Hill Slope was set to −1. Curves were fitted using a non-linear least square fit with the Levenberg-Marquardt algorithm.
as §1, with “9-12” for “1-8”
Kinase-tagged T7 phage strains were prepared in an E. coli host derived from the BL21 strain. […]
Molecule `COc1cn2ncc(-c3nc(N[C@H]4CNCC[C@@H]4F)c(C#N)cc3F)c2nc1C(C)(C)O` [Compound 10, 5-fluoro-2-(((3S,4S)-4-fluoropiperidin-3-yl)amino)-6-(5-(2-hydroxypropan-2-yl)-6-methoxypyrazolo[1,5-a]pyrimidin-3-yl)nicotinonitrile] yielded a Kd of 280 pM.

With `COc1cn2ncc(-c3nc(N[C@H]4CNCC[C@@H]4F)c(C#N)cc3F)c2nc1C1CC1` [Compound 7, 6-(5-cyclopropyl-6-methoxypyrazolo[1,5-a]pyrimidin-3-yl)-5-fluoro-2-(((3S,4S)-4-fluoropiperidin-3-yl)amino)nicotinonitrile], the Kd is < 170 pM.

The molecule `COc1cn2ncc(-c3nc(N[C@H]4CNCC[C@@H]4F)c(F)cc3F)c2nc1C(C)(C)O` [Compound 13, 2-(3-(3,5-difluoro-6-(((3S,4S)-4-fluoropiperidin-3-yl)amino)pyridin-2-yl)-6-methoxypyrazolo[1,5-a]pyrimidin-5-yl)propan-2-ol] showed a Kd of 610 pM.

Still in this test, the particulars now being: Table 18; no ATP.
For the molecule `COc1cn2ncc(-c3nc(N[C@@H]4CCCNC4)ncc3F)c2nc1C1CC1` [Compound 14a, (R)-4-(5-cyclopropyl-6-methoxypyrazolo[1,5-a]pyrimidin-3-yl)-5-fluoro-N-(piperidin-3-yl)pyrimidin-2-amine], the dissociation constant Kd was < 170 pM. `COc1cn2ncc(-c3nc(N[C@H]4CNCC[C@@H]4F)ncc3F)c2nc1C(C)(C)O` [Compound 6a, 2-(3-(5-fluoro-2-(((3S,4S)-4-fluoropiperidin-3-yl)amino)pyrimidin-4-yl)-6-methoxypyrazolo[1,5-a]pyrimidin-5-yl)propan-2-ol] registered a Kd of 470 pM. As for `COc1cn2ncc(-c3nc(N[C@H]4CNCC[C@@H]4F)ncc3F)c2nc1C1CC1` [Compound 15a, 4-(5-cyclopropyl-6-methoxypyrazolo[1,5-a]pyrimidin-3-yl)-5-fluoro-N-((3S,4S)-4-fluoropiperidin-3-yl)pyrimidin-2-amine], the Kd was < 170 pM. Still for that read-out and setting: the result for `COc1cn2ncc(-c3cncc(N[C@H]4CNCC[C@@H]4F)n3)c2nc1C1CC1` [Compound 12a, 6-(5-cyclopropyl-6-methoxypyrazolo[1,5-a]pyrimidin-3-yl)-N-((3S,4S)-4-fluoropiperidin-3-yl)pyrazin-2-amine] reads < 170 pM; that for `COc1cn2ncc(-c3ccnc(N[C@H]4CNCC[C@@H]4F)n3)c2nc1C1CC1` [Compound 7a, 4-(5-cyclopropyl-6-methoxypyrazolo[1,5-a]pyrimidin-3-yl)-N-((3S,4S)-4-fluoropiperidin-3-yl)pyrimidin-2-amine], < 170 pM.
